# Assay results taken from patent US8361802B2, “Fluorescent ozone sensor” (University of Pittsburgh—Of the Commonwealth System of …, priority 2009, dated 2013).
# Assays:
# [1] = Ozone detection in ambient (outdoor) air; details: 8 hours
# Experimental: In all cases, sensor 4=12.5 μM and all ozone assays were performed in 5:95 MeOH/pH 7 buffer. Solutions of senor 4 in 5:95 MeOH/pH 7 buffer were prepared and exposed to ambient air in various locations throughout a city on a hot, sunny day (˜32° C.) for 8 hours. A negative control was prepared in the same manner but incubated at 37° C. in a closed vial for 8 hours. […] Solutions of senor 4 ([4]final =12.5 μM) in 5:95 MeOH/pH 7 buffer ([PO4^3−]=5 mM) solution (4.0 mL) were prepared, and the samples were placed in high traffic outdoor areas for 8 hours. The samples were not exposed directly to sunlight. A negative control was prepared in the same manner but incubated at 37° C. in a closed vial for 8 hours. Following the 8 hour incubation period, the fluorescence of each sample was measured. Ozone detection in ambient air. Solution A (5.0 μL, [compound 4]final=12.5 μM) was added to a mixture of MeOH/pH 7 buffer ([PO4^3−]=5 mM) (5:95) (4.0 mL), and 4 samples were placed in 4 outdoor areas throughout University of Pittsburgh campus for 8 hours (high temperature=32.2° C.; AQI=43; PM2.5=64) on Jun. […] The samples were not exposed to direct sunlight. […] For each location, triplicate replicas were performed.
# [2] = Air pollutant specificity; details: acid 250 μM, metal 100 nM, 30 minutes at 37° C.
# Experimental: FIG. 3B illustrates Ozone specificity against other air pollutants: Sample A=no additive, Sample B=ozone, Sample C=HNO3, Sample D=H2SO4, Sample E=Pb, Sample F=Pd, Sample G=Pt. [Acid]=250 μM. [Metal]=100 nM. The acid samples were incubated in 5:95 MeOH/pure water for 30 minutes at 37° C. The metal samples were incubated in 5:95 MeOH/pH 7 buffer for 30 minutes at 37° C.
# A number of other pollutants were screened to ensure that ozone was selectively detected. Nitrogen dioxide and sulfur dioxide convert to their corresponding acids in aqueous solution so nitric acid and sulfuric acid were screened. Lead, palladium and platinum, which are known pollutants emitted from automobiles, were also screened. […]
# Acids: HNO3 or H2SO4 (10 μL of 0.1 M solution; [acid]final=250 μM) and solution A (5.0 μL, [compound 4]final=12.5 μM) were added to a mixture of MeOH/pure water solution (5:95) (4.0 mL), and the samples were incubated at 37° C. for 30 minutes before fluorescence measurement. […]
# Metals: Pb, Pd or Pt solution (40 μL of 10 μM solution; [Metal]final=100 nM) and solution A (5.0 μL, [compound 4]final=12.5 μM) were added to a mixture of MeOH/pH 7 buffer ([PO4^3−]=5 mM) (5:95) (4.0 mL), and the samples were incubated at 37° C. for 30 minutes before fluorescence measurement. […]
# [3] = Concentration dependence / sensitivity of fluorescent ozone detection; details: MeOH/pH 7 buffer (5:95), samples diluted 10-fold
# Experimental: FIG. 2B is a correlation between fluorescent intensity and ozone in 5:95 MeOH/pH 7 buffer after ten-fold dilution of original samples. The linear correlation is y=0.000900x+0.0467; R^2=0.987; average standard deviation=0.00844. The intensity continued to be linear up to 12.5 μM.
# The present invention the sensitivity of our fluorescent method for ozone detection was examined. The fluorescent intensity correlated to the concentration of ozone in the 50 nM-12.5 μM (2.4-600 ppbv) range with S/B of 2.6-310 after 10-fold dilution of the original samples (0-500 nM shown in FIG. 2B). The level of detection is 59 nM (2.9 ppbv; S/B=3) and the level of quantitation is 340 nM (16 ppbv; S/B=10).
# Concentration dependence. […] Error bars were determined from the calculated mean and standard deviation (Prism 5.0a, GraphPad Software, Inc.).
# [4] = Ozone detection in human serum; details: human serum diluted in pH 7 buffer, ozone ~5 μM
# Experimental: FIG. 2E illustrates Ozone detection in human serum, wherein Left Sample: 4, no ozone; Right Sample: 4, + ozone.
# One embodiment of the present invention utilized sensor 4 to detect ozone in human serum. […] One possible explanation may be due to the small Stokes shift that is found in fluorescein and its derivatives, which makes these fluorophores more prone to influences of scattering and interference.
# (§1) Ozone detection in human serum. Human serum (1.0 mL) was diluted in pH 7 buffer ([PO4^3−]=5 mM) (3.0 mL). Solution A (5.0 μL, [compound 4]final=12.5 μM) was added to the resulting human serum mixture, and the samples were exposed to ozone (˜5 μM) at 24° C. followed by 1 hour incubation at 37° C. before fluorescence measurement. The experiment was performed in triplicate with an illustration of one of the tests represented in FIG. 2E.
# [5] = Ozone detection in nasal fluid; details: ozone ~5 μM
# Experimental: FIG. 2D illustrates Ozone detection in nasal fluid, wherein Left Sample: 4, no ozone; Right Sample: 4, + ozone.
# One embodiment of the present invention is a biomedical probe to detect ozone. Since ozone is believed to be much too reactive to reach and permeate the epithelial cells, ozone detection in the presence of various antioxidants that are found in the epithelial lining fluid was attempted. […] Nasal fluid was tested to more accurately mimic the epithelial lining fluid of the lung.
# as §1, with “pleural fluid.” for “serum.”, “pleural fluid” for “serum”, “2D.” for “2E.”
smiles,measurement,setting,value
C=CCCOc1cc2oc3cc(=O)c(Cl)cc-3c(-c3ccccc3CO)c2cc1Cl [compound 4],"ozone level correlating to S/B, based on linear regression",[1],13-22 ppb
same,S/B,[1]; 5:95 MeOH/pH 7 buffer,10-17
same,fluorescent signal with other air pollutants (species C-G),[2],none of these species C-G produced a fluorescent signal
same,"background signal (fluorescence intensity, λem=523 nm)",[3],0.0377×10^5
same,S/B,[4],92
same,S/B,[5],92
